From patent US20260158009A1 (GENZYME CORPORATION, priority 2023, published 2026) come the findings set out here.

The target of experiment [1] is T1, hRIPK1 (aa 1-375) fusion protein (Homo sapiens, UniProt Q13546).
T1 construct: hRIPK1 (aa 1-375) fusion protein
T1 sequence (Q13546 1-375): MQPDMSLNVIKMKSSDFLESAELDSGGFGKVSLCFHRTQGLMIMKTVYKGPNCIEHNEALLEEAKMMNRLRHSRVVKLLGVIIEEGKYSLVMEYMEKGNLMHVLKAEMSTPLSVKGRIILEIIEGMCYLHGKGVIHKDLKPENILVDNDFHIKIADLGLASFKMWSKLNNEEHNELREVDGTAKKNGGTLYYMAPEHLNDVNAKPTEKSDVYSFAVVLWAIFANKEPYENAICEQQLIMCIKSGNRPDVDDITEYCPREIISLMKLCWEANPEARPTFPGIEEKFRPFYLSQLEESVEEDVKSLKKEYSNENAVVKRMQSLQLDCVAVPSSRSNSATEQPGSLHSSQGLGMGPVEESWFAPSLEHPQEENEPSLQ
In words: ADP-Glo kinase assay: catalytic activity of RIPK1 (autophosphorylation, conversion of ATP to ADP). The class given is biochemical. In outline: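 The readout was ADP-Glo luminescence after a 240 min rt autophosphorylation reaction with 50 μM ATP, following 30 min preincubation of 3.6 μg/ml hRIPK1 (aa 1-375) fusion with compound at 33300-1.69 nM final in 1% DMSO. Values came from Levenberg-Marquardt nonlinear fits.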

Experiment [2] has as its system U937 cells. In words: Cellular assay in U937 cells: activity of RIPK1 inhibitors on TNFα/zVAD.fmk-induced cell death (necroptosis), CellTiter 96 AQueous (MTS) readout. Type of experiment: cell-based. The note with it: Homo sapiens, U-937. In outline:
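Necroptosis was measured by viable-cell MTS reduction (4 h, absorbance 490 nm) after overnight (18–24 h) 37° C culture. Cell suspensions of U937 cells carried TNFα (100 ng/ml) plus zVAD.fmk (50 μM) before compound was added. A 10-point curve (10 μM–0.26 nM or 1 μM–0.07 nM) was run in duplicate, normalised to the control lacking TNFα/zVAD.fmk.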

Each structure is given as a SMILES string.

`Cc1ccc([C@@H]2CCON2C(=O)[C@H]2CC[C@H](Cc3cc(C)ncc3Cl)CC2)cn1` [compound 389, trans-[4-[(5-chloro-2-methylpyridin-4-yl)methyl]cyclohexyl]-[(3S)-3-(6-methylpyridin-3-yl)-1,2-oxazolidin-2-yl]methanone]: the half-maximal inhibitory concentration (IC50) (commonly the concentration at which inhibition is half-maximal) in experiment [1] amounted to 20 nM; in experiment [2], 13 nM.
For `Cc1c2ccccc2nn1C[C@H]1CC[C@H](C(=O)N2OCC[C@H]2c2cc(F)cc(F)c2)CC1` [compound 62, trans-((S)-3-(3,5-difluorophenyl)isoxazolidin-2-yl)(4-((3-methyl-2H-indazol-2-yl)methyl)cyclohexyl)methanone], in that order: 20 nM and 22 nM.
On to `N#Cc1ccc2nn(C[C@H]3CC[C@H](C(=O)N4OCC[C@H]4c4cc(F)cc(F)c4)CC3)cc2c1` [compound 58, trans-2-((4-((S)-3-(3,5-difluorophenyl)isoxazolidine-2-carbonyl)cyclohexyl)methyl)-2H-indazole-5-carbonitrile], for which the figures for the IC50 in experiment [1] and in experiment [2] were 26 nM and 32 nM, respectively.
Take `Cc1nnc2c(F)cc(C[C@H]3CC[C@H](C(=O)N4OCC[C@H]4c4ccc(F)cc4)CC3)cn12` [compound 320, trans-[4-[(8-fluoro-3-methyl-[1,2,4]triazolo[4,3-a]pyridin-6-yl)methyl]cyclohexyl]-[(3S)-3-(4-fluorophenyl)isoxazolidin-2-yl]methanone]: the IC50 was found to be 37 nM in experiment [1] and 28 nM in experiment [2].
Turning to `Cn1nccc1C[C@H]1CC[C@H](C(=O)N2OCC[C@H]2c2cc(F)cc(C#N)c2)CC1` [compound 237, trans-3-fluoro-5-[(3S)-2-[4-[(2-methylpyrazol-3-yl)methyl]cyclohexanecarbonyl]isoxazolidin-3-yl]benzonitrile], the figures for the IC50 in experiment [1] and in experiment [2] were 23 nM and 66 nM, respectively.
For `Cc1cn2cc(C[C@H]3CC[C@H](C(=O)N4OCC[C@H]4c4cnccn4)CC3)ccc2n1` [compound 226, trans-[4-[(2-methylimidazo[1,2-a]pyridin-6-yl)methyl]cyclohexyl]-[(3S)-3-pyrazin-2-ylisoxazolidin-2-yl]methanone] the same measures were 44 nM and 40 nM.
For `Cc1cc(C[C@H]2CC[C@H](C(=O)N3OCCC3c3cnccn3)CC2)c(C)cn1` (stereo in doubt) [compound 356, trans-[4-(2,5-Dimethyl-pyridin-4-ylmethyl)-cyclohexyl]-((S)-3-pyrazin-2-yl-isoxazolidin-2-yl)-methanone], in that order: 26 nM and 5 nM.
For `O=C([C@H]1CC[C@H](Cc2ccc3ncnn3c2)CC1)N1OCC[C@H]1c1cnccn1` [compound 143, trans-[(3S)-3-pyrazin-2-ylisoxazolidin-2-yl]-[4-([1,2,4]triazolo[1,5-a]pyridin-6-ylmethyl)cyclohexyl]methanone] the same measures were 76 nM and 44 nM.
With `Cc1nc2ccc(C[C@H]3CC[C@H](C(=O)N4OCC[C@H]4c4cnccn4)CC3)cn2n1` [compound 222, trans-[4-[(2-methyl-[1,2,4]triazolo[1,5-a]pyridin-6-yl)methyl]cyclohexyl]-[(3S)-3-pyrazin-2-ylisoxazolidin-2-yl]methanone], the IC50 in experiment [1] came to 37 nM; in experiment [2], 48 nM.
For `COc1cnc2ccn(C[C@H]3CC[C@H](C(=O)N4OCC[C@H]4c4cc(F)cc(C#N)c4)CC3)c2c1` [compound 128, trans-3-fluoro-5-[(3S)-2-[4-[(6-methoxypyrrolo[3,2-b]pyridin-1-yl)methyl]cyclohexanecarbonyl]isoxazolidin-3-yl]benzonitrile], in that order: 22 nM and 4 nM.
For `N#Cc1ccc2cnn(C[C@H]3CC[C@H](C(=O)N4OCC[C@H]4c4cnccn4)CC3)c2c1` [compound 200, trans-1-[[4-[(3S)-3-pyrazin-2-ylisoxazolidine-2-carbonyl]cyclohexyl]methyl]indazole-6-carbonitrile], in that order: 29 nM and 4 nM.
On to `Cc1nn(C[C@H]2CC[C@H](C(=O)N3OCC[C@H]3c3cc(F)cc(C#N)c3)CC2)c2ccccc12` [compound 61, trans-3-fluoro-5-((S)-2-(4-((3-methyl-1H-indazol-1-yl)methyl)cyclohexane-1-carbonyl)isoxazolidin-3-yl)benzonitrile], for which the IC50 stood at 23 nM in experiment [1] and 11 nM in experiment [2].
On to `Cc1ccc(C[C@H]2CC[C@H](C(=O)N3OCC[C@H]3c3cc(F)cc(C#N)c3)CC2)nn1` [compound 303, trans-3-fluoro-5-[(3S)-2-[4-[(6-methylpyridazin-3-yl)methyl]cyclohexanecarbonyl]isoxazolidin-3-yl]benzonitrile], for which the results for the IC50 in experiment [1] and in experiment [2] were 7 nM and 16 nM, respectively.
For `O=C1NCc2ccc(C[C@H]3CC[C@H](C(=O)N4OCC[C@H]4c4ccc(F)cc4)CC3)cc21` [compound 154, trans-6-[[4-[(3S)-3-(4-fluorophenyl)isoxazolidine-2-carbonyl]cyclohexyl]methyl]isoindolin-1-one] the same measures were 23 nM and 33 nM.
For `Cc1cc(C)n(-c2cc(C[C@H]3CC[C@H](C(=O)N4OCC[C@H]4c4cc(F)cc(F)c4)CC3)ncn2)n1` [compound 125, trans-[(3S)-3-(3,5-difluorophenyl)isoxazolidin-2-yl]-[4-[[6-(3,5-dimethylpyrazol-1-yl)pyrimidin-4-yl]methyl]cyclohexyl]methanone] the same measures were 9 nM and 16 nM.
For `N#Cc1ccc2cn(C[C@H]3CC[C@H](C(=O)N4OCC[C@H]4c4cnccn4)CC3)nc2c1` [compound 196, trans-2-[[4-[(3S)-3-pyrazin-2-ylisoxazolidine-2-carbonyl]cyclohexyl]methyl]indazole-6-carbonitrile] the same measures were 75 nM and 379 nM.
As for `N#Cc1cc2ncn(C[C@H]3CC[C@H](C(=O)N4OCC[C@H]4c4cnccn4)CC3)c2cc1F` [compound 97, trans-6-fluoro-1-((4-((S)-3-(pyrazin-2-yl)isoxazolidine-2-carbonyl)cyclohexyl)methyl)-1H-benzo[d]imidazole-5-carbonitrile], the figures for the IC50 in experiment [1] and in experiment [2] were 78 nM and 214 nM, respectively.
With `Cc1ncn(C[C@H]2CC[C@H](C(=O)N3OCC[C@H]3c3cc(F)cc(C#N)c3)CC2)c1C` [compound 82, trans-3-((S)-2-(4-((4,5-dimethyl-1H-imidazol-1-yl)methyl)cyclohexane-1-carbonyl)isoxazolidin-3-yl)-5-fluorobenzonitrile], the IC50 in experiment [1] was determined as 67 nM; in experiment [2], 136 nM.
As to `Cc1cncc([C@@H]2CCON2C(=O)[C@H]2CC[C@H](Cc3cc(C)c4nc(C)nn4c3)CC2)c1` [compound 378, trans-[4-[(2,8-dimethyl-[1,2,4]triazolo[1,5-a]pyridin-6-yl)methyl]cyclohexyl]-[(3S)-3-(5-methylpyridin-3-yl)-1,2-oxazolidin-2-yl]methanone], the figures for the IC50 in experiment [1] and in experiment [2] were 59 nM and 95 nM, respectively.
For `Cc1cnc([C@@H]2CCON2C(=O)[C@H]2CC[C@H](Cc3cc(C)ncc3F)CC2)cn1` [compound 384, trans-[4-[(5-fluoro-2-methylpyridin-4-yl)methyl]cyclohexyl]-[(3S)-3-(5-methylpyrazin-2-yl)-1,2-oxazolidin-2-yl]methanone] the same measures were 28 nM and 7 nM.
For `Cc1cc(C[C@H]2CC[C@H](C(=O)N3OCC[C@H]3c3cnccn3)CC2)c(Cl)cn1` [compound 396, trans-[4-[(5-chloro-2-methylpyridin-4-yl)methyl]cyclohexyl]-[(3S)-3-pyrazin-2-yl-1,2-oxazolidin-2-yl]methanone], in that order: 14 nM and 4 nM.
`Cc1cc(C)n(-c2cc(C[C@H]3CC[C@H](C(=O)N4OCC[C@H]4c4cc(F)cc(C#N)c4)CC3)ncn2)n1` [compound 124, trans-3-[(3S)-2-[4-[[6-(3,5-dimethylpyrazol-1-yl)pyrimidin-4-yl]methyl]cyclohexanecarbonyl]isoxazolidin-3-yl]-5-fluoro-benzonitrile]: the half-maximal inhibitory concentration (IC50) in experiment [1] turned out to be 26 nM; in experiment [2], 68 nM.
Regarding `Cc1nc2cc(F)ccc2n1C[C@H]1CC[C@H](C(=O)N2OCC[C@H]2c2cc(F)cc(C#N)c2)CC1` [compound 50, trans-3-fluoro-5-((S)-2-(4-((5-fluoro-2-methyl-1H-benzo[d]imidazol-1-yl)methyl)cyclohexane-1-carbonyl)isoxazolidin-3-yl)benzonitrile], the IC50 in experiment [1] was 27 nM; in experiment [2] it was 29 nM.
For `Cc1cn2cc(C[C@H]3CC[C@H](C(=O)N4OCC[C@H]4c4cnccn4)CC3)cc(F)c2n1` [compound 350, trans-[4-(8-Fluoro-2-methyl-imidazo[1,2-a]pyridin-6-ylmethyl)-cyclohexyl]-((S)-3-pyrazin-2-yl-isoxazolidin-2-yl)-methanone] the same measures were 63 nM and 34 nM.
